Values quoted from earlier work, collected in US20100196504A1, “SYNERGISTIC ACTIVE PREPARATIONS COMPRISING 1,2-DECANEDIOL AND FURTHER ANTIMICROBIAL ACTIVE COMPOUNDS” (SYMRISE GmbH & Co. KG, priority 2007, published 2010).

Tests used:
Corynebacterium acnes = conditions: microorganism causing body odour
[1] = system: Staphylococcus epidermidis; conditions: microorganism causing body odour
Propionibacterium acnes = conditions: microorganism causing acne

Measured: antimicrobial activity

CCCCCCCCC(O)CO (stereo not drawn) [1,2-decanediol]
antimicrobial activity: all assays above
